In ChEMBL document CHEMBL1128887, “3-benzyl-quinolones: Novel, potent inhibitors of mammalian topoisomerase II” (Bioorg Med Chem Lett, 1995):

Tests used:
P388 = test: In vitro cytotoxicity against P388 mouse leukemia cells; assay type: functional, cell-based
DNA topoisomerase II = DNA topoisomerase II (Homo sapiens, UniProt P11388+Q02880); test: Inhibitory activity against HeLa cell Topoisomerase II; assay type: cell-based
Mus musculus [1] = test: In vivo antitumor activity was measured as tumor growth inhibition in BDF1 male mice implanted with murine pancreatic adenocarcinoma (Panc 03) at dose schedule qd 3-11 administered iv; assay type: functional
Mus musculus [2] = test: In vivo antitumor activity was measured as maximum tolerated dose in BDF1 male mice implanted with murine pancreatic adenocarcinoma (Panc 03) at dose schedule qd 3-11 administered iv; assay type: functional
Mus musculus [3] = test: In vivo antitumor activity was measured as maximum tolerated dose in BDF1 male mice implanted with murine pancreatic adenocarcinoma (Panc 03) at dose schedule qd 3-9 administered sc; assay type: functional
Mus musculus [4] = test: In vivo antitumor activity was measured as tumor growth inhibition in BDF1 male mice implanted with murine pancreatic adenocarcinoma (Panc 03) at dose schedule qd 3-9 administered sc; assay type: functional
Mus musculus [5] = test: In vivo antitumor activity was measured as maximum tolerated dose in BDF1 male mice implanted with murine pancreatic adenocarcinoma (Panc 03) at dose schedule qd 4-11 administered iv; assay type: functional
Nucleic Acid = test: Compound was evaluated for its activity against bacterial DNA gyrase; assay type: nucleic-acid assay, Bacteria
Mus musculus [6] = test: In vivo antitumor activity was measured as tumor growth inhibition in BDF1 male mice implanted with murine pancreatic adenocarcinoma (Panc 03) at dose schedule qd 4-11 administered iv; assay type: functional
Mus musculus [7] = test: In vivo antitumor activity was measured as maximum tolerated dose in BDF1 male mice implanted with murine pancreatic adenocarcinoma (Panc 03) at dose schedule qd 3,4,7,10 administered iv; assay type: functional
Mus musculus [8] = test: In vivo antitumor activity was measured as tumor growth inhibition in BDF1 male mice implanted with murine pancreatic adenocarcinoma (Panc 03) at dose schedule qd 3,4,7,10 administered iv; assay type: functional
Mus musculus [9] = test: In vivo antitumor activity was measured as tumor growth inhibition in BDF1 male mice implanted with murine pancreatic adenocarcinoma (Panc 03) at dose schedule qd 3, bid 4-9; sc bid 10,11 administered iv; assay type: functional
Mus musculus [10] = test: In vivo antitumor activity was measured as maximum tolerated dose in BDF1 male mice implanted with murine pancreatic adenocarcinoma (Panc 03) at dose schedule qd 3, bid 4-9; sc bid 10,11 administered iv; assay type: functional
Mus musculus [11] = test: In vivo antitumor activity was measured as tumor growth inhibition in BDF1 male mice implanted with murine pancreatic adenocarcinoma (Panc 03) at dose schedule qd 3-12 administered sc; assay type: functional
Mus musculus [12] = test: In vivo antitumor activity was measured as maximum tolerated dose in BDF1 male mice implanted with murine pancreatic adenocarcinoma (Panc 03) at dose schedule qd 3-12 administered sc; assay type: functional
Mus musculus [13] = test: In vivo antitumor activity was measured as tumor growth inhibition in BDF1 male mice implanted with murine pancreatic adenocarcinoma (Panc 03) at dose schedule qd 4-9 administered sc; assay type: functional
Mus musculus [14] = test: In vivo antitumor activity was measured as maximum tolerated dose in BDF1 male mice implanted with murine pancreatic adenocarcinoma (Panc 03) at dose schedule qd 4-9 administered sc; assay type: functional
Mus musculus [15] = test: In vivo antitumor activity was measured as tumor growth inhibition in BDF1 male mice implanted with murine pancreatic adenocarcinoma (Panc 03) at dose schedule qd 4,6,8,10,12,14,16 administered iv; assay type: functional
Mus musculus [16] = test: In vivo antitumor activity was measured as maximum tolerated dose in BDF1 male mice implanted with murine pancreatic adenocarcinoma (Panc 03) at dose schedule qd 4,6,8,10,12,14,16 administered iv; assay type: functional

Row | Structure (SMILES) | EC50 (DNA topoisomerase II) [µM] | IC50 (P388) [nM] | also measured
1 | Cc1cc(-c2c(F)cc3c(=O)c(Cc4cccc5ccccc45)cn(C4CC4)c3c2F)cc(C)n1 | > 210 | – | –
2 | Cc1cc(-c2c(F)cc3c(=O)c(Cc4c[nH]cn4)cn(C4CC4)c3c2F)cc(C)n1 | 1.6 | 390 | –
3 | Cc1cc(-c2c(F)cc3c(=O)c(Cc4ccccc4NC(=O)C(F)(F)F)cn(C4CC4)c3c2F)cc(C)n1 | 4.7 | – | –
4 | Cc1cc(-c2c(F)cc3c(=O)c(Cc4ccccc4O)cn(C4CC4)c3c2F)cc(C)n1 | 0.33 | 670 | T/C (Mus musculus [1]): 5%; MTD (Mus musculus [2]): 225 mg/kg
5 | Cc1cc(-c2c(F)cc3c(=O)ccn(C4CC4)c3c2F)cc(C)n1 | – | – | MTD (Mus musculus [3]): 2410 mg/kg; T/C (Mus musculus [4]): >100%
6 | Cc1cc(-c2c(F)cc3c(=O)c(Cc4c(O)cc(O)cc4O)cn(C4CC4)c3c2F)cc(C)n1 | 0.098 | 470 | –
7 | Cc1cc(-c2c(F)cc3c(=O)c(Cc4c(O)cccc4O)cn(C4CC4)c3c2F)cc(C)n1 | 0.096 | 250 | MTD (Mus musculus [5]): 12 mg/kg; EC50 (Nucleic Acid): 140 nM; T/C (Mus musculus [6]): 0%
8 | Cc1cc(-c2c(F)cc3c(=O)c(Cc4ccc[nH]4)cn(C4CC4)c3c2F)cc(C)n1 | 5.1 | 930 | –
9 | Cc1cc(-c2c(F)cc3c(=O)c(Cc4ccccc4C(=O)O)cn(C4CC4)c3c2F)cc(C)n1 | 200 | – | –
10 | Cc1cc(-c2c(F)cc3c(=O)c(Cc4ccccc4NS(C)(=O)=O)cn(C4CC4)c3c2F)cc(C)n1 | 3.3 | – | –
11 | CC(=O)Nc1ccccc1Cc1cn(C2CC2)c2c(F)c(-c3cc(C)nc(C)c3)c(F)cc2c1=O | 5.1 | – | –
12 | Cc1cc(-c2c(F)cc3c(=O)c(-c4ccccc4)cn(C4CC4)c3c2F)cc(C)n1 | > 120 | – | –
13 | Cc1cc(-c2c(F)cc3c(=O)c(CC4CCCCC4)cn(C4CC4)c3c2F)cc(C)n1 | > 230 | – | –
14 | Cc1cc(-c2c(F)cc3c(=O)c(Cc4ccccc4N)cn(C4CC4)c3c2F)cc(C)n1 | 2.1 | 2100 | –
15 | Cc1cc(-c2c(F)cc3c(=O)c(Cc4ccccn4)cn(C4CC4)c3c2F)cc(C)n1 | 12 | – | –
16 | COc1ccccc1Cc1cn(C2CC2)c2c(F)c(-c3cc(C)nc(C)c3)c(F)cc2c1=O | 14 | 37000 | –
17 | Cc1cc(-c2c(F)cc3c(=O)c(Cc4ccc(O)cc4O)cn(C4CC4)c3c2F)cc(C)n1 | 0.16 | 210 | MTD (Mus musculus [7]): 20 mg/kg; T/C (Mus musculus [8]): 73%
18 | Cc1cc(-c2c(F)cc3c(=O)c(CCc4ccccc4)cn(C4CC4)c3c2F)cc(C)n1 | > 120 | – | –
19 | Cc1cc(-c2c(F)cc3c(=O)c(Cc4ncc[nH]4)cn(C4CC4)c3c2F)cc(C)n1 | 1.1 | 1100 | T/C (Mus musculus [9]): 21%; MTD (Mus musculus [10]): 88 mg/kg
20 | Cc1cc(-c2c(F)cc3c(=O)c(Cc4ccccc4)cn(C4CC4)c3c2F)cc(C)n1 | 3.9 | 7300 | T/C (Mus musculus [11]): >100%; MTD (Mus musculus [12]): 3749 mg/kg
21 | COc1cc(NS(C)(=O)=O)ccc1Nc1c2ccccc2nc2ccccc12 [AMSACRINE] | – | – | T/C (Mus musculus [13]): 0%; MTD (Mus musculus [14]): 48 mg/kg
22 | COc1cc([C@@H]2c3cc4c(cc3[C@@H](O[C@@H]3O[C@@H]5CO[C@@H](C)O[C@H]5[C@H](O)[C@H]3O)[C@H]3COC(=O)[C@H]23)OCO4)cc(OC)c1O [ETOPOSIDE] | – | – | T/C (Mus musculus [15]): 3%; MTD (Mus musculus [16]): 96 mg/kg
23 | Cc1cc(-c2c(F)cc3c(=O)c(C(=O)O)cn(C4CC4)c3c2F)cc(C)n1 [WIN-57294] | – | – | T/C (Mus musculus [11]): 31%; MTD (Mus musculus [12]): 600 mg/kg

Now from value to molecule, other results behind:

Row | EC50 (DNA topoisomerase II) [µM] | Structure (SMILES) | IC50 (P388) [nM] | also measured
24 | 14 | COc1ccc(Cc2cn(C3CC3)c3c(F)c(-c4cc(C)nc(C)c4)c(F)cc3c2=O)cc1 | 21000 | –
25 | 0.16 | Cc1cc(-c2c(F)cc3c(=O)c(Cc4cc(O)ccc4O)cn(C4CC4)c3c2F)cc(C)n1 | 360 | –
26 | 9.1 | Cc1cc(-c2c(F)cc3c(=O)c(Cc4ccncc4)cn(C4CC4)c3c2F)cc(C)n1 | – | –
27 | 1.2 | Cc1cc(-c2c(F)cc3c(=O)c(Cc4ccc(O)cc4)cn(C4CC4)c3c2F)cc(C)n1 | 1500 | –
28 | 7.2 | Cc1cc(-c2c(F)cc3c(=O)c(Cc4ccc(N)cc4)cn(C4CC4)c3c2F)cc(C)n1 | – | –
29 | > 210 | Cc1cc(-c2c(F)cc3c(=O)c(Cc4ccc(N(C)C)cc4)cn(C4CC4)c3c2F)cc(C)n1 | – | –
30 | 0.36 | Cc1cc(-c2c(F)cc3c(=O)c(Cc4cccc(O)c4O)cn(C4CC4)c3c2F)cc(C)n1 | 880 | –
31 | 7.7 | Cc1cc(-c2c(F)cc3c(=O)c(Cc4ccc(Cl)cc4)cn(C4CC4)c3c2F)cc(C)n1 | 20000 | –
32 | 1.1 | Cc1cc(-c2c(F)cc3c(=O)c(Cc4cccc(O)c4)cn(C4CC4)c3c2F)cc(C)n1 | 2200 | –
33 | 14 | COc1cccc(Cc2cn(C3CC3)c3c(F)c(-c4cc(C)nc(C)c4)c(F)cc3c2=O)c1 | 20000 | –
34 | > 100 | CC(=O)Nc1ccc(Cc2cn(C3CC3)c3c(F)c(-c4cc(C)nc(C)c4)c(F)cc3c2=O)cc1 | – | –
